Experimental data from patent US5210193A, “Piperazine derivatives” (American Cyanamid Company, priority 1990, dated 1993).
Values after ≈ are worked out from the molar mass of the structure shown. Where a name gives a salt, the structure may show the parent alone. Read-outs that look alike come from different tables or passages of the source. Blank lines part the entries; values can stand above or below the compound they belong to.

Experiments:
Experiment in all cases: in vitro antibacterial MIC, agar plate dilution
Assay type in all cases: cell-based
Citrobacter div. K 82-24 = details: 35° C.
Method in brief: (§1)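 Agar plate dilution on Mueller-Hinton agar, inoculum about 10^4 CFU per spot applied with a Steers replicator. MIC (mcg/ml) is the lowest compound concentration preventing visible growth after 18 h at 35 °C.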

[1] = tested on: Enterobacter cloacae K 84-10; details: 35° C.
Method in brief: as §1

[2] = tested on: Enterobacter cloacae MOR 84-30; details: Enterobacter cloacae, MOR8430, 18 h, 35° C., read-out: MIC
Method in brief: as §1

[3] = tested on: Enterobacter cloacae VGH 84-39; details: Enterobacter cloacae, VGH8439, 18 h, 35° C., read-out: MIC
Method in brief: as §1

[4] = tested on: Escherichia coli ATCC 25922; details: 35° C.
Method in brief: as §1

[5] = tested on: Escherichia coli CMC 84-11; details: 18 hours, 35° C.
Method in brief: as §1

[6] = tested on: Escherichia coli CMC 84-50; details: Escherichia coli, CMC8450, 18 h, 35° C., read-out: MIC
Method in brief: as §1

Escherichia coli LL 311 = details: 35° C.
Method in brief: as §1

[7] = tested on: Escherichia coli MOR 84-20; details: Escherichia coli, MOR8420, 18 h, 35° C., read-out: MIC
Method in brief: as §1

[8] = tested on: Escherichia coli VGH 84-19; details: Escherichia coli, VGH8419, 18 h, 35° C., read-out: MIC
Method in brief: as §1

[9] = tested on: Klebsiella pneumoniae CMC 84-31; details: Klebsiella pneumoniae, CMC8431, 18 h, 35° C., read-out: MIC
Method in brief: as §1

[10] = tested on: Klebsiella pneumoniae IO 83-5; details: Klebsiella pneumoniae, IO835, 18 h, 35° C., read-out: MIC
Method in brief: as §1

[11] = tested on: Klebsiella pneumoniae MOR 84-24; details: Klebsiella pneumoniae, MOR8424, 18 h, 35° C., read-out: MIC
Method in brief: as §1

[12] = tested on: Morganella morganii CMC 84-37; details: Morganella morganii, CMC8437, 18 h, 35° C., read-out: MIC
Method in brief: as §1

[13] = tested on: Morganella morganii CMC 84-38; details: 35° C.
Method in brief: as §1

[14] = tested on: Morganella morganii MOR 84-45; details: Morganella morganii, MOR8445, 18 h, 35° C., read-out: MIC
Method in brief: as §1

[15] = tested on: Morganella morganii VHG 84-12; details: Morganella morganii, VHG8412, 18 h, Morganella morganii VHG 84-12 (VGH 84-12 for Example 131), 35° C., read-out: MIC
Method in brief: as §1

[16] = tested on: Proteus rettgeri CMC 84-41; details: 18 hours, 35° C.
Method in brief: as §1

[17] = tested on: Proteus rettgeri IO 83-21; details: Providencia rettgeri, IO8321, 18 h, 35° C., read-out: MIC
Method in brief: as §1

[18] = tested on: Providencia stuarti CMC 83-3; details: Providencia, CMC833, 18 h, 35° C., read-out: MIC
Method in brief: as §1

[19] = tested on: Pseudomonas aeruginosa CMC 83-20; details: 35° C.
Method in brief: as §1

[20] = tested on: Pseudomonas aeruginosa K 84-16; details: Pseudomonas aeruginosa, K8416, 18 h, 35° C., read-out: MIC
Method in brief: as §1

[21] = tested on: Pseudomonas aeruginosa LL-1244; details: 35° C.
Method in brief: as §1

[22] = tested on: Pseudomonas aeruginosa VGH 84-3; details: Pseudomonas aeruginosa, VGH843, 18 h, 35° C., read-out: MIC
Method in brief: as §1

[23] = tested on: Pseudomonas aeruginosa VGH 84-4; details: 35° C.
Method in brief: as §1

[24] = tested on: Serratia marcescens CMC 83-74; details: Serratia marcescens, CMC8374, 18 h, 35° C., read-out: MIC
Method in brief: as §1

[25] = tested on: Serratia marcescens IO 83-63; details: IO8363, 18 hours, 35° C.
Method in brief: as §1

[26] = tested on: Serratia marcescens K 84-18; details: 18 hours, 35° C.
Method in brief: as §1

[27] = tested on: Serratia marcescens MOR 84-41; details: Serratia marcescens, MOR8441, 18 h, 35° C., read-out: MIC
Method in brief: as §1

[28] = tested on: Serratia marcescens VGH 84-30; details: 35° C.
Method in brief: as §1

[29] = tested on: Staphylococcus aureus ATTC 29213; details: 35° C.
Method in brief: as §1

[30] = tested on: Staphylococcus aureus CMC 83-131; details: Staphylococcus aureus, CMC83131, 18 h, 35° C., read-out: MIC
Method in brief: as §1

[31] = tested on: Staphylococcus aureus K 82-26; details: 35° C.
Method in brief: as §1

[32] = tested on: Staphylococcus aureus Smith; details: 35° C.
Method in brief: as §1

[33] = tested on: Staphylococcus aureus VGH 84-45; details: 35° C.
Method in brief: as §1

[34] = tested on: Staphylococcus aureus VGH 84-47; details: 35° C.
Method in brief: as §1

[35] = tested on: Streptococcus faecalis CMC 83-120; details: Enterococcus faecalis, CMC83120, 18 h, 35° C., read-out: MIC
Method in brief: as §1

[36] = tested on: Streptococcus faecalis UCI 85-19; details: 35° C.
Method in brief: as §1

[37] = tested on: Streptococcus faecalis UCI 85-30; details: Enterococcus faecalis, UCI8530, 18 h, 35° C., read-out: MIC
Method in brief: as §1

[38] = tested on: Streptococcus faecalis VGH 84-65; details: 35° C.
Method in brief: as §1

[39] = tested on: Streptococcus faecalis VGH 84-69; details: Enterococcus faecalis, VGH8469, 18 h, 35° C., read-out: MIC
Method in brief: as §1

[40] = Escherichia coli, ATCC25922, 18 h, read-out: MIC

MIC (Citrobacter div. K 82-24; 18 hours): 0.008 µg/mL (≈ 0.0215 µM)
MIC ([1]; Enterobacter cloacae, K8410, 18 h, read-out: MIC): 0.015 µg/mL (≈ 0.0404 µM)
MIC [2]: 0.25 µg/mL (≈ 0.673 µM)
MIC [3]: 0.015 µg/mL (≈ 0.0404 µM)
MIC [4, 40]: 0.015 µg/mL (≈ 0.0404 µM)
MIC [5]: > 0.015 µg/mL
MIC [6]: 0.015 µg/mL (≈ 0.0404 µM)
MIC (Escherichia coli LL 311; 18 hours): 0.03 µg/mL (≈ 0.0808 µM)
MIC [7]: 0.008 µg/mL (≈ 0.0215 µM)
MIC [8]: 0.008 µg/mL (≈ 0.0215 µM)
MIC [9]: 0.015 µg/mL (≈ 0.0404 µM)
MIC [10]: 0.03 µg/mL (≈ 0.0808 µM)
MIC [11]: 0.03 µg/mL (≈ 0.0808 µM)
MIC [12]: 0.03 µg/mL (≈ 0.0808 µM)
MIC ([13]; 18 hours): 0.3 µg/mL (≈ 0.808 µM)
MIC [14]: 0.008 µg/mL (≈ 0.0215 µM)
MIC [15]: 0.12 µg/mL (≈ 0.323 µM)
MIC [16]: 0.03 µg/mL (≈ 0.0808 µM)
MIC [17]: 0.12 µg/mL (≈ 0.323 µM)
MIC [18]: 2 µg/mL (≈ 5.38 µM)
MIC ([19]; 18 hours): 1 µg/mL (≈ 2.69 µM)
MIC [20]: 2 µg/mL (≈ 5.38 µM)
MIC ([21]; 18 hours): 1 µg/mL (≈ 2.69 µM)
MIC [22]: 4 µg/mL (≈ 10.8 µM)
MIC ([23]; Pseudomonas aeruginosa, VGH844, 18 h, read-out: MIC): 1 µg/mL (≈ 2.69 µM)
MIC [24]: 4 µg/mL (≈ 10.8 µM)
MIC [25]: 0.25 µg/mL (≈ 0.673 µM)
MIC [26]: > 0.015 µg/mL
MIC [27]: 0.06 µg/mL (≈ 0.162 µM)
MIC ([28]; 18 hours): 1 µg/mL (≈ 2.69 µM)
MIC ([29]; 18 hours): 0.25 µg/mL (≈ 0.673 µM)
MIC [30]: 0.25 µg/mL (≈ 0.673 µM)
MIC ([31]; 18 hours): 0.25 µg/mL (≈ 0.673 µM)
MIC ([32]; Staphylococcus aureus, 18 h, read-out: MIC): 0.06 µg/mL (≈ 0.162 µM)
MIC ([33]; Staphylococcus aureus, VGH8445, 18 h, read-out: MIC): 0.06 µg/mL (≈ 0.162 µM)
MIC ([34]; 18 hours): 0.06 µg/mL (≈ 0.162 µM)
MIC [35]: 1 µg/mL (≈ 2.69 µM)
MIC ([36]; 18 hours): 0.5 µg/mL (≈ 1.35 µM)
MIC [37]: 2 µg/mL (≈ 5.38 µM)
MIC ([38]; Enterococcus faecalis, VGH8465, 18 h, read-out: MIC): 0.5 µg/mL (≈ 1.35 µM)
MIC [39]: 1 µg/mL (≈ 2.69 µM)
SMILES: O=C(O)c1cn(C2CC2)c2cc(N3CCNC(C4CC4)C3)c(F)cc2c1=O (centres unmarked) [Example 96, 7-(3-Cyclopropyl-1-piperazinyl) -1-cyclopropyl-6-fluoro-1,4-dihydro-4-oxo-3-quinolinecarboxylic acid]

MIC (Citrobacter div. K 82-24; Citrobacter, DIV.K8224, 18 h, read-out: MIC): 0.12 µg/mL
MIC ([1]; 18 hours, monohydrochloride): 0.06 µg/mL
MIC [2]: 1 µg/mL
MIC [3]: 0.12 µg/mL
MIC ([4]; 18 hours, monohydrochloride): 0.12 µg/mL
MIC [4, 40]: 0.06 µg/mL
MIC ([5]; monohydrochloride): 0.03 µg/mL
MIC [6]: 0.12 µg/mL
MIC (Escherichia coli LL 311; Escherichia coli, LL311, 18 h, read-out: MIC): 0.03 µg/mL
MIC [7]: 0.12 µg/mL
MIC [8]: 0.12 µg/mL
MIC [9]: 0.12 µg/mL
MIC [10]: 0.25 µg/mL
MIC [11]: 0.25 µg/mL
MIC [12]: 0.06 µg/mL
MIC ([13]; Morganella morganii, CMC8438, 18 h, read-out: MIC): 0.12 µg/mL
MIC [14]: 0.12 µg/mL
MIC [15]: 0.25 µg/mL
MIC ([16]; monohydrochloride): 0.12 µg/mL
MIC [17]: 0.5 µg/mL
MIC [18]: 8 µg/mL
MIC ([19]; Pseudomonas aeruginosa, CMC8320, 18 h, read-out: MIC): 4 µg/mL
MIC [20]: 4 µg/mL
MIC ([21]; Pseudomonas aeruginosa, LL1244, 18 h, read-out: MIC): 2 µg/mL
MIC [22]: 16 µg/mL
MIC ([23]; 18 hours, monohydrochloride): 2 µg/mL
MIC [24]: 8 µg/mL
MIC [25]: 1 µg/mL
MIC ([26]; monohydrochloride): 0.25 µg/mL
MIC [27]: 0.25 µg/mL
MIC ([28]; Serratia marcescens, VGH8430, 18 h, read-out: MIC): 4 µg/mL
MIC ([29]; 18 hours, monohydrochloride): 0.12 µg/mL
MIC ([29]; Staphylococcus aureus, ATTC29213, 18 h, read-out: MIC): 0.06 µg/mL
MIC ([31]; Staphylococcus aureus, K8226, 18 h, read-out: MIC): 0.12 µg/mL
MIC ([32]; 18 hours, monohydrochloride): 0.03 µg/mL
MIC ([33]; 18 hours, monohydrochloride): 0.03 µg/mL
MIC ([34]; Staphylococcus aureus, VGH8447, 18 h, read-out: MIC): 0.12 µg/mL
MIC [35]: 1 µg/mL
MIC ([36]; Enterococcus faecalis, UCI8519, 18 h, read-out: MIC): 0.5 µg/mL
MIC [37]: 1 µg/mL
MIC ([38]; 18 hours, monohydrochloride): 0.5 µg/mL
MIC [39]: 0.5 µg/mL
SMILES: O=C(O)c1cn(C2CC2)c2cc(N3CCNC(c4ccsc4)C3)c(F)cc2c1=O (centres unmarked) [Example 98, 1-Cyclopropyl-6-fluoro-1,4-dihydro-4-oxo-7-[3-(3-thienyl)-1-piperazinyl]-3-quinolinecarboxylic acid, monohydrochloride]
